Measured values: patent US7749711B2, “Methods of assessing endothelial dysfunction using acute transient responses following fat administration” (priority 2003, dated 2010)

Tested on: patients with documented CAD
Test: Plasma LDL levels in CAD patients on simvastatin therapy
Type: in vivo, human
Conditions: simvastatin 40 mg/day, after 4 months on therapy, 13 CAD patients, data not shown
From the text: For all studies, patients were recruited and screened for coronary artery disease (CAD) according to the following criteria.
Study Population: Human subjects with active vascular disease were recruited for this aspect of the study. They were screened by a history and physical exam, measurements of lipid profile and routine blood chemistries to include for example, CBC, TSH, free T4, ALT, AST, CPK, CRP, BUN, creatinine, glucose, hemoglobin A1c (if diabetic), urinalysis for protein and glucose. First preference was given to subjects with coronary artery disease. Exclusions included the use of lipid lowering or high dose angiotensin II—altering (or blocking) drugs within three months of the study. For the purposes of the following example, because of the limitations in finding subjects with coronary artery disease that are not on lipid lowering drugs or other vascular active drugs, subjects were also accepted with high coronary disease risk ratings as determined by Framingham Risk Assessment including both hard and soft risk predictors. […]
All lipid, lipoprotein, and apolipoprotein measurements were performed in the Emory Lipid Research Laboratory, a participant in the NHLBI/CDC Lipid Standardization Program. MDA proteins were measured in the Emory Lipid Research Laboratory using a commercially available kit. […]

CCC(C)(C)C(=O)O[C@H]1C[C@@H](C)C=C2C=C[C@H](C)[C@H](CC[C@@H]3C[C@@H](O)CC(=O)O3)[C@H]21 [simvastatin]
LDL levels reduced by an average of: 32.1%
